pIC50: −log10 of the molar value.
Experiments:
[1] = biological target: T1, CDK2/CyclinE1 (Homo sapiens, UniProt P24941); test: CDK2/CyclinE1 kinase activity test (ADP-Glo); assay type: biochemical; conditions: 150 μM ATP, 25° C., 60 minutes; read-out: Enzyme activity data (IC50) CDK2/CyclinE1
T1 construct: purchased Promega
Protocol: Nivo Multilabel Analyzer (PerkinElmer).
Experimental method: Kinase buffer dilution enzyme in the kit, substrate, adenosine triphosphate and inhibitor were used. The compounds to be tested were diluted 5-fold to the 8th concentration with a row gun, that is, from 50 μM to 0.65 nM, the concentration of DMSO was 5%, and a double-replicate well experiment was set up. […] The reaction system was placed at 25° C. and reacted for 60 minutes. After the reaction was complete, 5 μL of ADP-Glo reagent was added to each well, and the reaction was continued at 25° C. for 40 minutes. At the end of the reaction, 10 μL of kinase detection reagent was added to each well. After the reaction was continued at 25° C. for 30 minutes, the chemiluminescence was read by a multi-label analyzer with an integration time of 0.5 seconds.
Using the equation (Sample−Min)/(Max−Min)×100% to convert the original data into inhibition rate, the IC50 value can be obtained by curve fitting with four parameters (obtained by the mode of log(inhibitor) vs. response—Variable slope in GraphPad Prism). Table 1 provides the enzymatic inhibitory activities of the compounds of the present invention on CDK2/CyclinA2, CDK2/CyclinE1, CDK4/CyclinD1, CDK6/CyclinD1, CDK9/CyclinT1.

[2] = biological target: T2, CDK4/CyclinD1 (Homo sapiens, UniProt P11802); test: CDK4/CyclinD1 kinase activity test (LANCE Ultra TR-FRET); assay type: biochemical; conditions: 350 μM ATP, 25° C., 120 minutes; read-out: Enzyme activity data (IC50) CDK4/cyclinD1
T2 construct: purchased Invitrogen
T2 sequence (P11802 whole entry): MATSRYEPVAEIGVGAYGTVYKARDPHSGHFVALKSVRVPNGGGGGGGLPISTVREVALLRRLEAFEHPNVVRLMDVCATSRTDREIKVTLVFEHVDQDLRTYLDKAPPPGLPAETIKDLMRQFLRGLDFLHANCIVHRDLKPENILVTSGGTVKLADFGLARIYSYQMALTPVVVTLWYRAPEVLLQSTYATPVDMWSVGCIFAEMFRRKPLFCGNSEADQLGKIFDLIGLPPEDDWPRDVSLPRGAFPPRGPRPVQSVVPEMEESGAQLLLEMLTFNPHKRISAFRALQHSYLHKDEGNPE
T2 sequence (P24385 whole entry partner): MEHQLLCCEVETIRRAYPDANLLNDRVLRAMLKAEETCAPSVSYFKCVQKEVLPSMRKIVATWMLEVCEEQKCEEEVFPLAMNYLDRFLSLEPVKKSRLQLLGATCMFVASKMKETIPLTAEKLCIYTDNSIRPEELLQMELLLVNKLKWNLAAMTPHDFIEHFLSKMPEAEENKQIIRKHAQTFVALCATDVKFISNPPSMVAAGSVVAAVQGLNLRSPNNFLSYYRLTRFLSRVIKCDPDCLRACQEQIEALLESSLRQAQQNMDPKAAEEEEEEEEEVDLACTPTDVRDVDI
Protocol: Experimental materials: CDK4/CyclinD1 kinase was purchased from Invitrogen, reaction substrate LANCE Ultra ULight™-4E-BP-1 (Thr37146) Peptide and EU-ANTI-P-4EBP1 (THR37/46) were purchased from PerkinElmer. Nivo Multilabel Analyzer (PerkinElmer).
(§1) Experimental method: preparation of kinase buffer: The components of the buffer include: 50 mM of hydroxyethylpiperazine […] solution with pH 7.5, 1 mM of EDTA, 10 mM of magnesium chloride, 0.01% lauryl polyoxyethylene ether (Brij-35), 2 mM of enzyme dithiothreitol, kinase buffer dilution enzyme, substrate LANCE Ultra ULight™-4E-BP-1 (Thr37146) Peptide, adenosine triphosphate and inhibitor. […] The reaction system was continued at 25° C. for 120 minutes. After the reaction was complete, a mixture of 5 μL of EDTA and 2× LANCE™ Detection Buffer (1:1) was added to each well, and reacted at 25° C. for 5 minutes, after the reaction was complete, 5 μL of LANCE Ultra Eu-anti-P-4E-BP1(Thr37MS) (4 nM) was added to each well, and reacted at 25° C. for 60 minutes, the reaction signal was detected by Nivo instrument according to the principle of time-resolved fluorescence resonance energy transfer.
(§2) Table 1 provides the enzymatic inhibitory activities of the compounds of the present invention on CDK2/CyclinA2, CDK2/CyclinE1, CDK4/CyclinD1, CDK6/CyclinD1, CDK9/CyclinT1.

[3] = biological target: T3, CDK6/CyclinD1 (Homo sapiens, UniProt Q00534); test: CDK6/CyclinD1 kinase activity test (LANCE Ultra TR-FRET); assay type: biochemical; conditions: 250 μM ATP, 25° C., 120 minutes; read-out: Enzyme activity data (IC50) CDK6/cyclinD1
T3 construct: purchased Carna
T3 sequence (Q00534 whole entry): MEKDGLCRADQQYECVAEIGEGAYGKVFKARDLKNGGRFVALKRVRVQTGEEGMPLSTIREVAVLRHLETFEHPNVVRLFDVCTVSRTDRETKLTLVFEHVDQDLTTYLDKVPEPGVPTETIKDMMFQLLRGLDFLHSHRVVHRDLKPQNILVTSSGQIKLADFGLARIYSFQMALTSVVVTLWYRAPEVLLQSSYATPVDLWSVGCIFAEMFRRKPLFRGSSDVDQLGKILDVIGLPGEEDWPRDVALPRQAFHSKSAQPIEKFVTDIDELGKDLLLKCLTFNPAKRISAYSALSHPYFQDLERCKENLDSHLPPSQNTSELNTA
T3 sequence (P24385 whole entry partner): as the sequence (P24385 whole entry partner) above
Protocol: Experimental materials: CDK6/CyclinD1 kinase was purchased from Carna, reaction substrate LANCE Ultra ULight™-4E-BP-1 (Thr37146) Peptide and EU-ANTI-P-4EBP1 (THR37/46) were purchased from PerkinElmer. Nivo Multilabel Analyzer (PerkinElmer).
as §1, §2

[4] = system: HCC1806 cells; test: HCC1806 cell activity test (CyQUANT); assay type: cell-based; conditions: Homo sapiens, 168 h, 7 days, read-out: Antiproliferative activity (IC50) HCC1806
Protocol: Experimental materials: RPMI-1640 medium, fetal bovine serum, penicillin/streptomycin antibiotics were purchased from Vicente. CyQUANT Cell Proliferation Assays (Cell proliferation assay kit) reagents were purchased from ThermoFisher. The HCC1806 cell line was purchased from Cobioer Biosciences Co., Ltd. Nivo Multilabel Analyzer (PerkinElmer).
Experimental method: HCC1806 cells were seeded in a white 96-well plate, 80 μL of cell suspension per well, which contained 3000 HCC1806 cells. The cell plate was incubated overnight in a carbon dioxide incubator. The compounds to be tested were diluted 5-fold to the 9th concentration with a row gun, that is, from 10 mM to 25.6 nM, and a double-replicate well experiment was set up. 78 μL of medium was added to the middle plate, and then transferred 2 μL per well of the gradient diluted compound to the middle plate according to the corresponding position, mixed well and transferred 20 μL per well to the cell plate. […] After reaching the incubation time, the cell supernatant was removed, and the cell plate was placed in a −80° C. refrigerator for 1 hour, after which 100 μL of Cyquant reagent was added to each well, and a multi-label analyzer was used for reading. Another cell plate was prepared, and the signal value was read as the maximum value (Max value in the equation below) on the day of drug addition to participate in data analysis. […]

C[C@@]1(O)CCC[C@H]1N1C(=O)CCc2cnc(NC3CCN(S(C)(=O)=O)CC3)nc21 [Compound 1A]
pIC50 [1]: 8.92 | pIC50 [2]: 8.23 | pIC50 [3]: 8.82 | pIC50 [4]: 6.81

— US12679837B2, “Aminopyrimidine compound as CDK2/4/6 triple inhibitor” (CISEN PHARMACEUTICAL CO., LTD, priority 2019, dated 2026)
